According to the supplement of paper PMC10307832:

Key:
Assay in all cases: relative viability (nuclei count vs DMSO), 5 days (fraction); higher = more cells survive
AT-7519 + Olaparib = compound: O=C(NC1CCNCC1)c1n[nH]cc1NC(=O)c1c(Cl)cccc1Cl [AT-7519] + O=C(c1cc(Cc2n[nH]c(=O)c3ccccc23)ccc1F)N1CCN(C(=O)C2CC2)CC1 [Olaparib] (partner 8 µM)
Procedure, shortened: (§1)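 Dosing by pin tool came one day after lung cancer cell lines were seeded in 1536-well plates, using either one drug or a fixed anchor-drug dose plus five library-drug doses (not always all listed) in √10 steps. After 5 days, nuclei were counted on 4× images. Relative viability is treated-well nuclei count divided by vehicle-well nuclei count, and values are medians of duplicate plates.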

AT-7519 + Pictilisib = compound: O=C(NC1CCNCC1)c1n[nH]cc1NC(=O)c1c(Cl)cccc1Cl [AT-7519] + CS(=O)(=O)N1CCN(Cc2cc3nc(-c4cccc5[nH]ncc45)nc(N4CCOCC4)c3s2)CC1 [Pictilisib] (partner 1 µM)
Procedure, shortened: as §1

[1] = compound: C1=CC2=C(C=C(C(=C2N=C1)O)N=NC3=CC4=C(C=C3)C=C(C=C4)S(=O)(=O)O)S(=O)(=O)O + CC(=O)Nc1cccc(-n2c(=O)n(C3CC3)c(=O)c3c(Nc4ccc(I)cc4F)n(C)c(=O)c(C)c32)c1 [Trametinib] (partner 0.02 µM)
Procedure, shortened: as §1

[2] = compound: C1=CC2=C(C=C(C(=C2N=C1)O)N=NC3=CC4=C(C=C3)C=C(C=C4)S(=O)(=O)O)S(=O)(=O)O + CCNC(=O)c1noc(-c2cc(C(C)C)c(O)cc2O)c1-c1ccc(CN2CCOCC2)cc1 [Luminespib] (partner 0.01 µM)
Procedure, shortened: as §1

Row | Cell Line | relative viability (AT-7519 + Olaparib; first compound 0.01 µM) | relative viability (AT-7519 + Olaparib; first compound 0.03162 µM) | relative viability (AT-7519 + Olaparib; first compound 0.3162 µM) | relative viability (AT-7519 + Olaparib; first compound 1 µM) | relative viability (AT-7519 + Pictilisib; first compound 0.01 µM) | relative viability (AT-7519 + Pictilisib; first compound 0.03162 µM) | relative viability (AT-7519 + Pictilisib; first compound 0.3162 µM) | relative viability (AT-7519 + Pictilisib; first compound 1 µM) | relative viability ([1]; first compound 0.08 µM) | relative viability ([1]; first compound 0.253 µM) | relative viability ([1]; first compound 0.8 µM) | relative viability ([1]; first compound 2.53 µM) | relative viability ([1]; first compound 8 µM) | relative viability ([2]; first compound 0.08 µM) | relative viability ([2]; first compound 0.253 µM) | relative viability ([2]; first compound 0.8 µM) | relative viability ([2]; first compound 2.53 µM) | relative viability ([2]; first compound 8 µM)
1 | NCI-H1793 | 0.849 | 0.774 | 0.786 | 0.546 | 0.357 | 0.255 | 0.31 | 0.161 | 0.53 | 0.387 | 0.452 | 0.347 | 0.348 | 0.22 | 0.189 | 0.184 | 0.264 | 0.16
2 | NCI-H1915 | 0.25 | 0.273 | 0.292 | 0.208 | 0.987 | 0.943 | 0.755 | 0.417 | 0.268 | 0.299 | 0.288 | 0.301 | 0.28 | 0.842 | 0.773 | 0.877 | 0.78 | 0.82
3 | NCI-H1944 | 0.383 | 0.424 | 0.412 | 0.337 | 0.356 | 0.334 | 0.323 | 0.339 | 0.415 | 0.385 | 0.416 | 0.474 | 0.366 | 0.826 | 0.696 | 0.802 | 0.741 | 0.721
4 | NCI-H1975 | 0.816 | 0.67 | 0.641 | 0.15 | 0.293 | 0.253 | 0.231 | 0.146 | 0.382 | 0.332 | 0.381 | 0.292 | 0.585 | 0.194 | 0.2 | 0.206 | 0.264 | 0.252
5 | NCI-H1993 | 1.04 | 0.833 | 0.973 | 0.769 | 0.783 | 0.76 | 0.929 | 0.606 | 0.49 | 0.465 | 0.575 | 0.539 | 0.504 | 0.83 | 0.865 | 0.853 | 1.09 | 0.589
6 | NCI-H2009 | 0.663 | 0.697 | 0.61 | 0.707 | 0.914 | 0.763 | 0.654 | 0.247 | 0.316 | 0.3 | 0.294 | 0.288 | 0.24 | 1.08 | 0.995 | 1.04 | 1.14 | 0.623
7 | NCI-H2023 | 0.46 | 0.485 | 0.386 | 0.128 | 0.25 | 0.24 | 0.207 | 0.172 | 0.527 | 0.58 | 0.558 | 0.589 | 0.637 | 0.87 | 0.741 | 0.788 | 0.914 | 0.52
8 | NCI-H2085 | 0.768 | 0.806 | 0.744 | 0.724 | 0.44 | 0.506 | 0.553 | 0.382 | 0.538 | 0.512 | 0.557 | 0.582 | 0.433 | 0.409 | 0.419 | 0.426 | 0.367 | 0.44
9 | NCI-H2087 | 0.607 | 0.515 | 0.421 | 0.0663 | 1.02 | 0.882 | 0.593 | 0.173 | 0.2 | 0.213 | 0.196 | 0.217 | 0.236 | 0.169 | 0.191 | 0.153 | 0.231 | 0.237
10 | NCI-H2126 | 0.902 | 0.935 | 0.932 | 0.874 | 0.571 | 0.516 | 0.464 | 0.433 | 0.568 | 0.539 | 0.56 | 0.606 | 0.555 | 0.898 | 0.899 | 0.89 | 1.04 | 0.86
11 | NCI-H2170 | 0.585 | 0.59 | 0.608 | 0.562 | 0.305 | 0.29 | 0.234 | 0.255 | 1.06 | 0.856 | 0.83 | 0.984 | 0.927 | 0.83 | 0.63 | 0.672 | 0.731 | 0.895
12 | NCI-H2228 | 0.54 | 0.602 | 0.569 | 0.208 | 0.357 | 0.371 | 0.473 | 0.149 | 0.81 | 0.453 | 0.603 | 0.443 | 0.703 | 0.136 | 0.13 | 0.134 | 0.166 | 0.0984
13 | NCI-H2347 | 0.619 | 0.506 | 0.561 | 0.41 | 0.565 | 0.665 | 0.345 | 0.286 | 0.316 | 0.303 | 0.279 | 0.262 | 0.316 | 0.77 | 0.523 | 0.36 | 0.824 | 0.317
14 | NCI-H2405 | 0.89 | 0.783 | 0.906 | 0.606 | 0.461 | 0.424 | 0.438 | 0.293 | 0.635 | 0.597 | 0.599 | 0.686 | 0.687 | 0.891 | 0.79 | 0.632 | 0.827 | 0.753
15 | NCI-H3122 | 0.664 | 0.651 | 0.627 | 0.579 | 0.625 | 0.603 | 0.645 | 0.102 | 0.218 | 0.225 | 0.227 | 0.242 | 0.225 | 0.0606 | 0.111 | 0.0925 | 0.0947 | 0.102
16 | PC-3 [JPC-3] | 1.19 | 1.1 | 1.09 | 0.981 | 0.779 | 0.751 | 0.688 | 0.694 | 0.78 | 0.725 | 0.737 | 0.735 | 0.644 | 0.576 | 0.708 | 0.663 | 0.729 | 0.761
17 | PC-14 | 0.234 | 0.227 | 0.231 | 0.104 | 0.66 | 0.59 | 0.521 | 0.258 | 0.743 | 0.688 | 0.782 | 0.838 | 0.69 | 0.141 | 0.139 | 0.152 | 0.148 | 0.0819
18 | RERF-LC-KJ | 0.884 | 0.964 | 0.659 | 0.242 | 0.514 | 0.452 | 0.594 | 0.136 | 0.935 | 0.864 | 0.849 | 0.96 | 0.644 | 1.38 | 1.18 | 1.18 | 1.37 | 1.38
